Measured values reported in patent US11230526B1, “Cylcoalkenyl derivatives useful as agonists of the GPR120 and/or GPR40 receptors” (Janssen Pharmaceutica NV, priority 2018, dated 2022).
pEC50: −log10 of the molar value.

Columns and labels:
human GPR40 = target: T1, human GPR40 (Homo sapiens, UniProt O14842); assay: GPR40 calcium flux assay, human GPR40; type: cell-based; details: HEK293 cells stably expressing GPR40; table does not say human or rat
T1 construct: expressed in transfected cells
Outline: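 Cells preincubated 1 h at 37° C. in HBSS, 20 mM HEPES, 0.1% BSA, then Fluo 8 calcium dye 30 min at 37° C. and 15 min at room temperature.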

Human GPR120 short form = target: T2, Human GPR120 short form (Homo sapiens, UniProt Q5NUL3); assay: Human GPR120 calcium flux assay, Procedure Calcium B (4200 cells/well); type: cell-based
T2 construct: expressed in transfected cells
T2 sequence (Q5NUL3 1-361): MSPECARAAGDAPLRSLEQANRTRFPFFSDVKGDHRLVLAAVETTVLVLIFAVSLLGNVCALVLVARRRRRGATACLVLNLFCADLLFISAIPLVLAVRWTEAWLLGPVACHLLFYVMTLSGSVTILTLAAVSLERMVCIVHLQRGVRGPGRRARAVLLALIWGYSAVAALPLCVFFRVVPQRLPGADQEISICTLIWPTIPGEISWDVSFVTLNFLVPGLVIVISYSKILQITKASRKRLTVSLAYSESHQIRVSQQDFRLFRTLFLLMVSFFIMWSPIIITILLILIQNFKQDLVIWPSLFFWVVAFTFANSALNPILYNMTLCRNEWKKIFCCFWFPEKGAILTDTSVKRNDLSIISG
Outline: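 Agonist EC50 came from a four-parameter fit of RFU (Fmax−Fmin) read over 300 s on FLIPR. Cells were HEK293 stably transfected with human GPR120 (NM_001195755.1) at 4200 per well, serum-starved 1 h and loaded with Fluo-4 NW dye with probenecid before ligand addition.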

T1 sequence (O14842 whole entry): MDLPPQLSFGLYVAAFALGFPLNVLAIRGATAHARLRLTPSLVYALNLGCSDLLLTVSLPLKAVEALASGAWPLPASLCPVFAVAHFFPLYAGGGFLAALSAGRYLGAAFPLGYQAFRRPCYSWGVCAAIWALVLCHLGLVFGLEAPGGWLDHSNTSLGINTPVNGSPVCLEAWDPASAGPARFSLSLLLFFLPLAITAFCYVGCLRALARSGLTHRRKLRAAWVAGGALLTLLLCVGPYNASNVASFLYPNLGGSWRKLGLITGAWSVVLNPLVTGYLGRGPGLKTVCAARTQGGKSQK

Structure (SMILES) | pEC50 (human GPR40) | pEC50 (Human GPR120 short form)
CCCC1=C(COc2ccc(CCC(=O)O)c(C(F)(F)F)c2)CCCC1 [Compound 590, 3-[4-[(2-propylcyclohexen-1-yl)methoxy]-2-(trifluoromethyl)phenyl]Propanoic Acid] | 6.50 | 5.87
CCCC1=C(COc2ccc(CCC(=O)O)c(Cl)c2)CCCC1 [Compound 591, 3-[2-chloro-4-[(2-propylcyclohexen-1-yl)methoxy]phenyl]Propanoic Acid] | 6.37 | 5.62
O=C(O)CCc1ccc(OCC2=C(C3CC4CCC3C4)CCCC2)cc1C(F)(F)F (centres unmarked) [Compound 592, 3-[4-[(2-norbornan-2-ylcyclohexen-1-yl)methoxy]-2-(trifluoromethyl)phenyl]Propanoic Acid] | 5.81 | < 5.30
O=C(O)CCc1ccc(OCC2=C(C3CC4CCC3C4)CCCC2)cc1Cl (centres unmarked) [Compound 593, 3-[2-chloro-4-[(2-norbornan-2-ylcyclohexen-1-yl)methoxy]phenyl]Propanoic Acid] | 5.89 | < 5.30
O=C(O)CCc1ccc(OCC2=C(C3CCCC3)CCCC2)cc1Cl [Compound 594, 3-[2-chloro-4-[(2-cyclopentylcyclohexen-1-yl)methoxy]phenyl]Propanoic Acid] | < 5.00 | 6.44
O=C(O)CCc1ccc(OCC2=C(Cc3cncs3)CCCC2)cc1C(F)(F)F [Compound 596, 3-[4-[[2-(thiazol-5-ylmethyl)cyclohexen-1-yl]methoxy]-2-(trifluoromethyl)phenyl]Propanoic Acid] | 6.49 | 5.63
O=C(O)CCc1ccc(OCC2=C(C3CCCCC3)CCCC2)cc1Cl [Compound 602, 3-[2-chloro-4-[(2-cyclohexylcyclohexen-1-yl)methoxy]phenyl]Propanoic Acid] | 5.97 | 5.62
CC1(C)CCC(C2CCCC2)=C(COc2ccc(CCC(=O)O)c(C(F)(F)F)c2)C1 [Compound 604, 3-[4-[(2-cyclopentyl-5,5-dimethyl-cyclohexen-1-yl)methoxy]-2-(trifluoromethyl)phenyl]Propanoic Acid] | 5.82 | 5.70
CC1(C)CCC(C2CCCC2)=C(COc2ccc(CCC(=O)O)c(Cl)c2)C1 [Compound 605, 3-[2-chloro-4-[(2-cyclopentyl-5,5-dimethyl-cyclohexen-1-yl)methoxy]phenyl]Propanoic Acid] | 6.07 | 5.93
O=C(O)CCc1ccc(OCC2=C(C3CCCC3)CCC(F)(F)C2)cc1Cl [Compound 607, 3-[2-chloro-4-[(2-cyclopentyl-5,5-difluoro-cyclohexen-1-yl)methoxy]phenyl]Propanoic Acid] | 6.49 | 6.83
O=C(O)CCc1ccc(OCC2=C(C3CCCC3)CCC(F)(F)CC2)cc1 [Compound 611, 3-[4-[(2-cyclopentyl-5,5-difluoro-cyclohepten-1-yl)methoxy]phenyl]Propanoic Acid] | 6.13 | 6.51
O=C(O)CCc1ccc(OCC2=C(C3CCCC3)CCCCC2)cc1 [Compound 614, 3-[4-[(2-cyclopentylcyclohepten-1-yl)methoxy]phenyl]Propanoic Acid] | 6.25 | 6.42
Cc1c(CCC(=O)O)ccc(OCC2=C(c3ccc(Cl)cc3)CCCCC2)c1C [Compound 615, 3-[4-[[2-(4-chlorophenyl)cyclohepten-1-yl]methoxy]-2,3-dimethyl-phenyl]Propanoic Acid] | < 5.00 | 6.76
Cc1c(CCC(=O)O)ccc(OCC2=C(c3ccc(Cl)cc3)CCC(F)(F)CC2)c1C [Compound 616, 3-[4-[[2-(4-chlorophenyl)-5,5-difluoro-cyclohepten-1-yl]methoxy]-2,3-dimethyl-phenyl]Propanoic Acid] | 5.45 | 6.78
Cc1c(CCC(=O)O)ccc(OCC2=C(C3CCCC3)CCC(F)(F)CC2)c1C [Compound 618, 3-[4-[(2-cyclopentyl-5,5-difluoro-cyclohepten-1-yl)methoxy]-2,3-dimethyl-phenyl]Propanoic Acid] | < 5.00 | 6.73

Stronger by pEC50 (human GPR40), values ahead:

pEC50 (human GPR40) | pEC50 (Human GPR120 short form) | Structure (SMILES)
6.57 | 6.52 | O=C(O)CCc1ccc(OCC2=C(C3CCCC3)CCC(F)(F)CC2)cc1F [Compound 610, 3-[4-[(2-cyclopentyl-5,5-difluoro-cyclohepten-1-yl)methoxy]-2-fluoro-phenyl]Propanoic Acid]
6.61 | 6.78 | O=C(O)CCc1ccc(OCC2=C(C3CCCC3)CCC(F)(F)C2)cc1C(F)(F)F [Compound 606, 3-[4-[(2-cyclopentyl-5,5-difluoro-cyclohexen-1-yl)methoxy]-2-(trifluoromethyl)phenyl]Propanoic Acid]
6.65 | 6.36 | O=C(O)CCc1ccc(OCC2=C(C3CCCC3)CCCCC2)cc1F [Compound 613, 3-[4-[(2-cyclopentylcyclohepten-1-yl)methoxy]-2-fluoro-phenyl]Propanoic Acid]
6.66 | 5.96 | O=C(O)CCc1ccc(OCC2=C(Cc3cncs3)CCCC2)cc1Cl [Compound 595, 3-[2-chloro-4-[[2-(thiazol-5-ylmethyl)cyclohexen-1-yl]methoxy]phenyl]Propanoic Acid]
6.73 | 5.71 | O=C(O)CCc1ccc(OCC2=C(C3CCCC3)CCCC2)cc1C(F)(F)F [Compound 603, 3-[4-[(2-cyclopentylcyclohexen-1-yl)methoxy]-2-(trifluoromethyl)phenyl]Propanoic Acid]
6.75 | 6.40 | CCCCC1=C(COc2ccc(CCC(=O)O)c(C(F)(F)F)c2)CCCC1 [Compound 598, 3-[4-[(2-butylcyclohexen-1-yl)methoxy]-2-(trifluoromethyl)phenyl]Propanoic Acid]
6.97 | 6.63 | O=C(O)CCc1ccc(OCC2=C(C3CCCC3)CCCCC2)cc1C(F)(F)F [Compound 612, 3-[4-[(2-cyclopentylcyclohepten-1-yl)methoxy]-2-(trifluoromethyl)phenyl]Propanoic Acid]
6.99 | 6.67 | O=C(O)CCc1ccc(OCC2=C(C3CCCC3)CCC(F)(F)CC2)cc1C(F)(F)F [Compound 617, 3-[4-[(2-cyclopentyl-5,5-difluoro-cyclohepten-1-yl)methoxy]-2-(trifluoromethyl)phenyl]Propanoic Acid]
7.01 | 5.87 | O=C(O)CCc1ccc(OCC2=C(C3CCC3)CCCC2)cc1C(F)(F)F [Compound 599, 3-[4-[(2-cyclobutylcyclohexen-1-yl)methoxy]-2-(trifluoromethyl)phenyl]Propanoic Acid]
7.62 | 5.92 | O=C(O)CCc1ccc(OCC2=C(C3CCC3)CCCC2)cc1Cl [Compound 600, 3-[2-chloro-4-[(2-cyclobutylcyclohexen-1-yl)methoxy]phenyl]Propanoic Acid]
